Source: patent US5032588A, “Thiazole lipoxygenase-inhibiting compounds derived from non-steroidal antiinflammatory carboxylic acids” (Abbott Laboratories, priority 1989, dated 1991)

The compounds below were run against T1, 5-lipoxygenase (Rattus norvegicus, UniProt P12527) (assay: Inhibition of 5-lipoxygenase activity (20,000x g supernatant from homogenized RBL-1 cells)). Conditions: linear regression of percentage inhibition versus log inhibitor concentration, read-out: IC50 (concentration of compound producing 50% enzyme inhibition).
T1 construct: 20,000x g supernatant from homogenized RBL-1 cells; endogenous in cells; host or cells: RBL-1 cells (20,000 x g supernatant of homogenate)
T1 sequence (P12527 1-673): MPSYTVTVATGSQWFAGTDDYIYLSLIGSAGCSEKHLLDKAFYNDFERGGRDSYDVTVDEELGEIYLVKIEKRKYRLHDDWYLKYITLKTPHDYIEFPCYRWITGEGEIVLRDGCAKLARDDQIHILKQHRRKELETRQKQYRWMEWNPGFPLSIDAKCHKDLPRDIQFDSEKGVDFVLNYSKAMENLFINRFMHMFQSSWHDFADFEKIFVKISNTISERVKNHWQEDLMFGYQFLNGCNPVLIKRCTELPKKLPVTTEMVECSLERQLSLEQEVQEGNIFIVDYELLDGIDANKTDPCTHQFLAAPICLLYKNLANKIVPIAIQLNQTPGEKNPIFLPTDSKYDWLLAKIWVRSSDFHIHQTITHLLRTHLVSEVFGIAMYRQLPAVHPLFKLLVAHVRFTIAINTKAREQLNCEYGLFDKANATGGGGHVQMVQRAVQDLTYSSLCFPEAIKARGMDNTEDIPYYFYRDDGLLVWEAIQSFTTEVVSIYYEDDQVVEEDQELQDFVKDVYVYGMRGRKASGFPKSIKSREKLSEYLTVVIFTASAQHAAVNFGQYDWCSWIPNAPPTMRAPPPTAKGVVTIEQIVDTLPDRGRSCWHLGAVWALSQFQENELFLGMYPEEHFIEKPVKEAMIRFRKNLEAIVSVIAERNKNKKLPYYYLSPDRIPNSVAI
Format: biochemical
Experimental: Inhibition of 5-lipoxygenase activity was determined using the 20,000x g supernatant from homogenized RBL-1 cells in a similar manner as that described by Dyer and coworkers (Dyer, R. D.; Haviv, F.; Hanel, A. M.; Bornemier, D. A.; Carter, G. W. Fed. Proc., Fed. Am. Soc. Exp. Biol., 43:1462A, (1984).) IC50 values (concentration of compound producing 50% enzyme inhibition) were calculated by linear regression analysis of percentage inhibition versus log inhibitor concentration plots.

Compound	IC50
CC(C)Cc1ccc(Cc2nc(O)c(-c3ccccc3)s2)cc1 [Example 3, 2-[(4-isobutylphenyl)methyl]-5-phenyl-4-hydroxythiazole]	1.1 µM
CCC(c1ccc(CC(C)C)cc1)c1nc(O)c(-c2ccccc2)s1 (centres unmarked) [Example 4, 2-[1-(4-isobutylphenyl)propyl]-5-phenyl-4-hydroxythiazole]	0.06 µM

Further compounds by falling IC50, results first:

IC50	Compound
0.9 µM	COc1ccc2cc(C(C)c3sc(-c4ccccc4)nc3O)ccc2c1 (centres unmarked) [Example 5, 5-[1-(6-methoxy-2-naphthyl)ethyl]-2-phenyl-4-hydroxythiazole]
0.71 µM	CC(C)Cc1ccc(C(C)c2nc(O)c(-c3ccccc3)s2)cc1 (centres unmarked) [Example 2, 2-[1-(4-isobutylphenyl)ethyl]-5-phenyl-4-hydroxy-thiazole]
0.42 µM	COc1ccc2cc(C(C)c3nc(O)c(-c4ccccc4)s3)ccc2c1 (centres unmarked) [Example 1, 2-[1-(6-methoxy-2-naphthyl)ethyl]-5-phenyl-4-hydroxythiazole]
